# Measured values as given in PubChem BioAssay (NCI).
#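 Exposure lasted 48 hours, with cells grown in 96-well plates and compounds tested at five concentrations. GI50 is the concentration that inhibits growth by half. At the TGI there is no net growth.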
# Columns and labels:
# Test in all cases: NCI tumour cell line growth inhibition, 48 h
# A498 renal = tested on: A498 renal
# NCI-H23 lung = tested on: NCI-H23 lung
# HCT-15 colon = tested on: HCT-15 colon
# HT29 colon = tested on: HT29 colon
# OVCAR-5 ovarian = tested on: OVCAR-5 ovarian
# SNB-78 CNS = tested on: SNB-78 CNS
# HCC-2998 colon = tested on: HCC-2998 colon
# HCT-116 colon = tested on: HCT-116 colon
# SN12C renal = tested on: SN12C renal
# DLD-1 colon = tested on: DLD-1 colon
Structure (SMILES),TGI (A498 renal),TGI (NCI-H23 lung),TGI (HCT-15 colon),TGI (HT29 colon),TGI (OVCAR-5 ovarian),GI50 (SNB-78 CNS),TGI (SNB-78 CNS),TGI (HCC-2998 colon),TGI (HCT-116 colon),TGI (SN12C renal),TGI (DLD-1 colon)
[C-]#[O+].[Cl][Sn]([Cl])[Cl].[Cl][Sn]([Cl])[Cl].[Pt].c1cnc2c(c1)ccc1cccnc12,13.3 µM,> 100 µM,> 44 µM,> 100 µM,> 59.5 µM,15.8 µM,66 µM,13.1 µM,> 24.6 µM,> 61.2 µM,–
CCOC(=O)C(Cc1ccc(N=NN(C)C)cc1)NC(=O)CC1c2ccccc2-c2ccccc21 (configuration not stated),> 100 µM,> 100 µM,> 100 µM,> 100 µM,> 100 µM,–,–,> 100 µM,> 100 µM,> 100 µM,> 100 µM
O=C(O)C1CCC(=O)N1C(=O)COc1cc(Cl)c(Cl)cc1Cl (configuration not stated),> 100 µM,> 100 µM,> 100 µM,> 100 µM,> 100 µM,–,> 100 µM,–,> 100 µM,> 100 µM,–
Cc1cc(-c2ccc(N=Nc3ccc4c(S(=O)(=O)O)cc(S(=O)(=O)O)c(N)c4c3O)c(C)c2)ccc1N=Nc1ccc2c(S(=O)(=O)O)cc(S(=O)(=O)O)c(N)c2c1O,> 100 µM,> 100 µM,> 100 µM,> 100 µM,> 100 µM,–,> 100 µM,> 100 µM,> 100 µM,> 100 µM,> 100 µM
NC1CCC2(O)c3ccccc3C2C1 (configuration not stated),–,> 100 µM,> 100 µM,> 100 µM,–,–,> 100 µM,–,> 100 µM,> 100 µM,–
CN1C(c2ccccc2)CC(O)CC1c1ccccc1 (configuration not stated),> 100 µM,> 100 µM,> 100 µM,> 100 µM,> 100 µM,–,> 100 µM,–,> 100 µM,> 100 µM,> 100 µM
Cc1nc2sccn2c1C(=O)NNC(N)=S,–,> 100 µM,> 100 µM,> 100 µM,> 100 µM,–,–,> 100 µM,> 100 µM,> 100 µM,> 100 µM
CCOC(=O)C1C(c2ccc(Br)cc2)N(Cc2ccccc2)C(c2ccc(Br)cc2)C(C(=O)OC)S1(=O)=O (configuration not stated),–,> 100 µM,> 100 µM,> 100 µM,> 100 µM,–,> 100 µM,> 100 µM,> 100 µM,> 100 µM,> 100 µM
O=C1/C(=C\c2cccc(Oc3ccccc3)c2)SC(c2ccccc2)N1c1cc(Cl)ccc1Cl (configuration not stated),> 100 µM,> 100 µM,> 100 µM,> 100 µM,> 100 µM,–,–,> 100 µM,52.7 µM,48.9 µM,–
COc1c(OC2OC(CO)C(O)C(O)C2O)cc2c(c1OC)-c1ccc(OC)c(=O)cc1C(NC(C)=O)CC2 (configuration not stated),> 100 µM,> 100 µM,> 100 µM,> 100 µM,> 100 µM,–,> 100 µM,> 100 µM,> 100 µM,> 100 µM,> 100 µM
